pEC50, pIC50: −log10 of the molar value.
Experiments:
[1] = tested on: full length IL-2 (amino acids 1-153) fused to Gaussia Luciferase; assay: Dox Induced IL2-FL-Gluc Assay; assay type: cell-based; conditions: 24 hr, Dox inducible, 293FRT/TO cells; read-out: 24 hr Dox Inducible IL2FLGluc 293FRT/TO: Mean IC50
Summary of the method: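 Flp-In 293 T-REx stable line expressing full-length IL-2 (aa 1-153) with C-terminal Gaussia luciferase fusion under doxycycline-inducible control. Cells plated the day before; compound dilutions added in DMSO/media containing doxycycline, incubated at 37° C, 5% CO2.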

[2] = In Vitro Microsome Stability Assay (rat); assay type: in vitro ADME; conditions: rat liver microsomes, 30 min w/ NADPH
Summary of the method: (§1)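 The value reported is the percentage of parent left after 30 min, calculated from analyte/IS peak-area ratios relative to time zero by LC-MS/MS. Incubations ran at 37° C in 0.1 M potassium phosphate with NADPH and microsomes (stock 20 mg/mL), with compound added from a 0.25 mM DMSO stock. Acetonitrile containing IS stopped the reactions.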

[3] = tested on: full length TNFα (amino acids 1-233) fused to Gaussia Luciferase; assay: Dox Induced TNFα-FL-Gluc Assay; assay type: cell-based; conditions: 24 hr, Dox inducible, 293FRT/TO cells; read-out: 24 hr Dox Inducible TNFaFLGluc 293FRT/TO: Mean IC50
Summary of the method: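 Stable Flp-In 293 T-REx line expressing doxycycline-inducible full-length TNFα fused to Gaussia luciferase; cells plated the day before, then treated with compound dilutions in doxycycline-containing medium at 37° C, 5% CO2. Unspecified stereocentres mean stereoisomer mixtures were tested.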

[4] = tested on: multiple myeloma cell line NCl-H929; assay: H929 Cell Viability Assay; assay type: cell-based, human; conditions: Homo sapiens, NCI-H929, 48 h, H929, Celltiter-Glo
Summary of the method: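 NCI-H929 myeloma cells in RPMI 1640 with 10% FBS were treated with compound dilutions for 48 h at 37 °C, and viability was then read by CellTiter-Glo luminescence. Compounds drawn without stereochemistry were tested as stereoisomer mixtures.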

[5] = In Vitro Microsome Stability Assay (monkey); assay type: in vitro ADME; conditions: monkey liver microsomes, 30 min w/ NADPH
Summary of the method: as §1

[6] = tested on: multiple myeloma cell line U266B1; assay: U266 Cell Viability Assay; assay type: cell-based, human; conditions: Homo sapiens, U-266; 48 hr, U266, Celltiter-Glo
Summary of the method: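 U266B1 myeloma cells in RPMI 1640 with 10% FBS were treated with compound dilutions for 48 h at 37° C, 5% CO2. Viability was read as CellTiter-Glo luminescence. Data for structures drawn without stereochemistry refer to stereoisomer mixtures.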

[7] = tested on: HER3 signal sequence plus 4 amino acids fused to Gaussia Luciferase (HER3-ss+4aa/Gaussia Luciferase); assay: Dox Induced HER3-ss-Gluc Assay; assay type: cell-based; conditions: 24 hr, doxycycline induced, Flp-In 293 T-REx cells; read-out: 24 hr Dox Inducible Her3(ss + 4) Gluc 293FRT/TO: Mean 1050
Excerpt: FIp-In 293 T-REx™ cells were transfected with pcDNA™5/FRT/TO plasmid inserted with cDNA encoding Gaussia Luciferase fused to the 3′ end of cDNA encoding HER3 signal sequence plus 4 amino acids (N-[…]-C) (SEQ ID NO: 2). Transfected cells were selected for resistance to the selectable markers Hygromycin and Blasticidin to create a stable cell line that contained the HER3-ss+4aa/Gaussia Luciferase cDNA insert whose expression was regulated under the T-REx™ system. The day before assay, cells were trypsinized and plated in 384-well tissue culture plates. The next day, compound dilutions in DMSO/media containing doxycycline were added to the wells and incubated at 37° C., 5% CO2.
For chemical structures that include one or more stereoisomers, but are illustrated without indicating stereochemistry, the assay data refers to a mixture of stereoisomers.

[8] = tested on: PD1 signal sequence plus 10 amino acids fused to Gaussia Luciferase (PD1-ss+10aa/Gaussia Luciferase); assay: Dox Induced PD1-ss-Gluc Assay; assay type: cell-based; conditions: 24 hr, Dox inducible, 293FRT/TO cells; read-out: 24 hr Dox Inducible PD1ssGluc 293FRT/TO: Mean IC50
Summary of the method: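 Stable Flp-In 293 T-REx line expressing the fusion under tetracycline-inducible control, plated the day before assay. Compound dilutions added with doxycycline and incubated at 37 °C, 5% CO2; unspecified stereocentres mean data refer to stereoisomer mixtures.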

[9] = In Vitro Microsome Stability Assay (human); assay type: in vitro ADME; conditions: human liver microsomes, 30 min w/ NADPH
Summary of the method: as §1

[10] = In Vitro Microsome Stability Assay (mouse); assay type: in vitro ADME; conditions: mouse liver microsomes, 30 min w/ NADPH
Summary of the method: as §1

SMILES	pIC50 [1]	Liver Microsome Stability-% Left after 30 min w/ NADPH (%) Rat [2]	pIC50 [3]	pEC50 [4]	Liver Microsome Stability-% Left after 30 min w/ NADPH (%) Monkey [5]	pEC50 [6]	pIC50 [7]	pIC50 [8]	Liver Microsome Stability-% Left after 30 min w/ NADPH (%) Human [9]	Liver Microsome Stability-% Left after 30 min w/ NADPH (%) Mouse [10]
C[C@H]1CN(S(=O)(=O)c2ccc(N(C)C)cc2)CCCN(CCC2CC2)CCCN(S(=O)(=O)N2CCc3cc(Cl)ccc3C2)C1 [A122, 4-{[(3S)-5-[(6-chloro-1,2,3,4-tetrahydroisoquinolin-2-yl)sulfonyl]-9-(2-cyclopropylethyl)-3-methyl-1,5,9-triazacyclododecan-1-yl]sulfonyl}-N,N-dimethylaniline]	6.87	0.17%	6.05	5.62	0.15%	< 4.60	6.96	7.28	0.38%	36.4%
C[C@H]1CN(S(=O)(=O)c2ccc(N(C)C)cc2)CCCN([C@@H](C)C2CCCCC2)CCCN(S(=O)(=O)N2CCc3cc(Cl)ccc3C2)C1 [A190, 4-{[(3S)-5-[(6-chloro-1,2,3,4-tetrahydroisoquinolin-2-yl)sulfonyl]-9-[(1 S)-1-cyclohexylethyl]-3-methyl-1,5,9-triazacyclododecan-1-yl]sulfonyl}-N,N-dimethylaniline]	7.34	85.3%	6.53	6.06	71.6%	< 4.60	7.45	7.79	74.1%	69.3%
C[C@H]1CN(S(=O)(=O)c2ccc(N(C)C)cc2)CCCN(CCC2CCCC2)CCCN(S(=O)(=O)N2CCc3cc(Cl)ccc3C2)C1 [A120, 4-{[(3S)-5-[(6-chloro-1,2,3,4-tetrahydroisoquinolin-2-yl)sulfonyl]-9-(2-cyclopentylethyl)-3-methyl-1,5,9-triazacyclododecan-1-yl]sulfonyl}-N,N-dimethylaniline]	7.56	28.5%	6.62	6.17	16.3%	< 4.60	7.50	7.81	4.78%	19.2%
C[C@@H]1CN(S(=O)(=O)NCc2ccccc2)CCCN(CC2CCCCC2)CCCN(S(=O)(=O)c2ccc(N(C)C)cc2)C1 [A187, (3S)-N-benzyl-9-(cyclohexylmethyl)-5-[4-(dimethylamino)benzenesulfonyl]-3-methyl-1,5,9-triazacyclododecane-1-sulfonamide]	5.96	0.07%	5.21	5.41	0.15%	< 4.60	6.10	6.37	0.05%	0.03%
C[C@H]1CN(S(=O)(=O)c2ccc(N(C)C)cc2)CCCN(CC2CCC(F)(F)CC2)CCCN(S(=O)(=O)N2CCc3cc(Cl)ccc3C2)C1 [A185, 4-{[(3S)-5-[(6-chloro-1,2,3,4-tetrahydroisoquinolin-2-yl)sulfonyl]-9-[(4,4-difluorocyclohexyl)methyl]-3-methyl-1,5,9-triazacyclododecan-1-yl]sulfonyl}-N,N-dimethylaniline]	7.07	37.8%	6.24	5.83	10.0%	< 4.60	7.07	7.36	21.8%	30.1%
C[C@H]1CN(S(=O)(=O)c2ccc(N(C)C)cc2)CCCN(CC(C)(C)C)CCCN(S(=O)(=O)N2CCc3cc(Cl)ccc3C2)C1 [A107, 4-{[(3S)-5-[(6-chloro-1,2,3,4-tetrahydroisoquinolin-2-yl)sulfonyl]-9-(2,2-dimethylpropyl)-3-methyl-1,5,9-triazacyclododecan-1-yl]sulfonyl}-N,N-dimethylaniline]	7.14	19.3%	6.22	5.93	25.0%	< 4.60	7.35	7.58	83.9%	16.1%

The remaining lines, values ahead:

pIC50 [1]	Liver Microsome Stability-% Left after 30 min w/ NADPH (%) Rat [2]	pIC50 [3]	pEC50 [4]	Liver Microsome Stability-% Left after 30 min w/ NADPH (%) Monkey [5]	pEC50 [6]	pIC50 [7]	pIC50 [8]	Liver Microsome Stability-% Left after 30 min w/ NADPH (%) Human [9]	Liver Microsome Stability-% Left after 30 min w/ NADPH (%) Mouse [10]	SMILES
6.79	28.3%	5.85	< 4.60	25.5%	< 4.60	6.88	7.09	8.0%	23.7%	COc1ccc(N2CCN(S(=O)(=O)N3CCCN(CC4CCCCC4)CCCN(S(=O)(=O)c4ccc(N(C)C)cc4)C[C@H](C)C3)CC2)cc1 [A199, 4-{[(3S)-9-(cyclohexylmethyl)-5-{[4-(4-methoxyphenyl)piperazin-1-yl]sulfonyl}-3-methyl-1,5,9-triazacyclododecan-1-yl]sulfonyl}-N,N-dimethylaniline]
6.52	38.7%	5.74	5.63	31.7%	< 4.60	6.64	6.89	37.2%	38.9%	C[C@H]1CN(S(=O)(=O)c2ccc(N(C)C)cc2)CCCN([C@@H](C)c2ccccc2)CCCN(S(=O)(=O)N2CCc3ccccc3C2)C1 [A205, N,N-dimethyl-4-{[(3S)-3-methyl-9-[(1 S)-1-phenylethyl]-5-(1,2,3,4-tetrahydroisoquinoline-2-sulfonyl)-1,5,9-triazacyclododecan-1-yl]sulfonyl}aniline]
5.63	0.08%	< 4.60	5.03	0.10%	< 4.60	5.77	5.94	0.02%	0.18%	CC(=O)N(C)c1ccc(CNS(=O)(=O)N2CCCN(CC3CCCCC3)CCCN(S(=O)(=O)c3ccc(N(C)C)cc3)C[C@H](C)C2)cc1 [A192, N-{4-[({[(3S)-9-(cyclohexylmethyl)-5-[4-(dimethylamino)benzenesulfonyl]-3-methyl-1,5,9-triazacyclododecan-1-yl]sulfonyl}amino)methyl]phenyl}-N-methylacetamide]
